Columns and labels:
[1] = Cell viability assay (MTT) on normal mammary epithelial cells; assay type: cell-based, human; details: human, MCF-10A normal mammary gland epithelial cells, MCF-10A normal cells, 4 days incubation
Method: This test investigates the effects of the new compounds 3–16 on normal cell lines to determine their safety. The normal human mammary gland epithelial (MCF-10 A) cell line was used to test the viability of the tested compounds. After 4 days of incubation on MCF-10 A cells within 50 µM of each investigated compound, cell viability was determined using the MTT assay ([Gomaa et al., 2020]; [Marzouk et al., 2020]).
The normal human mammary gland epithelial (MCF-10A) cell line was used to test the viability of the tested compounds. After 4 days of incubation on MCF-10A cells within 50 µM of each investigated compound, cell viability was determined using the MTT assay ([Gomaa et al., 2020]; [Marzouk et al., 2020]). Refer to Supplementary Appendix SA1 (supp. File) for more details.
4.2. Biological evaluation
4.2.1 Cell Viability assay (MTT assay)
MTT assay was performed to investigate the effect of the synthesized compounds on mammary epithelial cells (MCF-10A). The cells were propagated in medium consisting of Ham's F-12 medium/ Dulbecco's modified Eagle's medium (DMEM) (1:1) supplemented with 10% foetal calf serum, 2 mM glutamine, insulin (10 μg/mL), hydrocortisone (500 ng/mL) and epidermal growth factor (20 ng/mL). Trypsin ethylenediamine tetra acetic acid (EDTA) was used to passage the cells after every 2-3 days. 96-well flat-bottomed cell culture plates were used to seed the cells at a density of 10^4 cells mL-1. The medium was aspirated from all the wells of culture plates after 24 h followed by the addition of synthesized compounds (in 200 μL medium to yield a final concentration of 0.1% (v/v) dimethyl sulfoxide) into individual wells of the plates. Four wells were designated to a single compound. The plates were allowed to incubate at 37°C for 96 h. Afterwards, the medium was aspirated and 3-[4,5-dimethylthiazol-2-yl]-2,5-diphenyltetrazolium bromide (MTT) (0.4 mg/mL) in medium was added to each well and subsequently incubated for 3 h. The medium was aspirated and 150 μL dimethyl sulfoxide (DMSO) was added to each well. The plates were vortexed followed by the measurement of absorbance at 540 nm on a microplate reader. The results were presented as inhibition (%) of proliferation in contrast to controls comprising 0.1%

[2] = system: A-549 cells; experiment: Antiproliferative assay, A-549; assay type: cell-based; details: Homo sapiens, A549; A-549 lung cancer cell line; read-out: Antiproliferative activity IC50 ± SEM, A-549
Method: (§1) 4.2.2. Assay for antiproliferative effect
(§2) To explore the antiproliferative potential of compounds propidium iodide fluorescence assay was performed using different cell lines such as Panc-1 (pancreas cancer cell line), MCF-7 (breast cancer cell line), HT-29 (colon cancer cell line) and A-549 (epithelial cancer cell line), respectively. To calculate the total nuclear DNA, a fluorescent dye (propidium iodide, PI) is used which can attach to the DNA, thus offering a quick and precise technique. PI cannot pass through the cell membrane and its signal intensity can be considered as directly proportional to quantity of cellular DNA. Cells whose cell membranes are damaged or have changed permeability are counted as dead ones. The assay was performed by seeding the cells of different cell lines at a density of 3000-7500 cells/well (in200μl medium) in culture plates followed by incubation for 24h at 37 °C in humidified 5%CO2/95% air atmospheric conditions. The medium was removed; the compounds were added to the plates at 10 μM concentrations (in 0.1% DMSO) in triplicates, followed by incubation for 48h. DMSO (0.1%) was used as control. After incubation, medium was removed followed by the addition of PI (25 μl, 50μg/mL in water/medium) to each well of the plates. At - 80 °C, the plates were allowed to freeze for 24 h, followed by thawing at 25 °C. A fluorometer (Polar-Star BMG Tech) was used to record the readings at excitation and emission wavelengths of 530 and 620 nm for each well. The percentage cytotoxicity of compounds was calculated using […]
(§3) Where ATC= Absorbance of treated cells and AC= Absorbance of control. Erlotinib was used as positive control in the assay.

[3] = system: MCF-7 cells; experiment: Antiproliferative assay, MCF-7; assay type: cell-based; details: Homo sapiens, MCF7; MCF-7 breast cancer cell line; read-out: Antiproliferative activity IC50 ± SEM, MCF-7
Method: as §1, §2, §3

[4] = system: Panc-1 cells; experiment: Antiproliferative assay, Panc-1; assay type: cell-based; details: Homo sapiens; Panc-1 pancreatic cancer cell line; read-out: Antiproliferative activity IC50 ± SEM, Panc-1
Method: as §1, §2, §3

[5] = system: HT-29 cells; experiment: Antiproliferative assay, HT-29; assay type: cell-based; details: Homo sapiens; HT-29 colon cancer cell line; read-out: Antiproliferative activity IC50 ± SEM, HT-29
Method: as §1, §2, §3

[6] = system: four human cancer cell lines (A-549, MCF-7, Panc-1, HT-29); experiment: Antiproliferative assay, average over four cancer cell lines (GI50); assay type: cell-based; details: for IC50: Homo sapiens, average of IC50 against A-549, MCF-7, Panc-1, HT-29
Method: See Supplementary Appendix SA1 for more details.
as §1
To explore the antiproliferative potential of compounds propidium iodide fluorescence assay was performed using different cell lines such as Panc-1 (pancreas cancer cell line), MCF-7 (breast […]
respectively. To calculate the total nuclear DNA, a fluorescent dye (propidium iodide, PI) is used which can attach to the DNA, thus offering a quick and precise technique. PI cannot pass through the cell membrane and its signal intensity can be considered as directly proportional to quantity of cellular DNA. Cells whose cell membranes are damaged or have changed permeability are counted as dead ones. The assay was performed by seeding the cells of different cell lines at a density of […]
The medium was removed; the compounds were added to the plates at 10 μM concentrations (in 0.1% DMSO) in triplicates, followed by incubation for 48h. DMSO (0.1%) was used as control. After incubation, medium was removed followed by the addition of PI (25 μl, 50μg/mL in water/medium) to each well of the plates. At - 80 °C, the plates were allowed to freeze for 24 h, followed by thawing at 25 °C. A fluorometer (Polar-Star BMG Tech) was used to record the readings at excitation and emission wavelengths of 530 and 620 nm for each well. The percentage cytotoxicity of compounds was calculated using […]
Where ATC= Absorbance of treated cells and AC= Absorbance of control. […]
positive control in the assay.

[7] = target: T1, aromatase (CYP19) (Homo sapiens, UniProt P11511); experiment: Aromatase inhibitory assay (Gentest kit, DBF fluorometric substrate)
T1 sequence (P11511 1-503): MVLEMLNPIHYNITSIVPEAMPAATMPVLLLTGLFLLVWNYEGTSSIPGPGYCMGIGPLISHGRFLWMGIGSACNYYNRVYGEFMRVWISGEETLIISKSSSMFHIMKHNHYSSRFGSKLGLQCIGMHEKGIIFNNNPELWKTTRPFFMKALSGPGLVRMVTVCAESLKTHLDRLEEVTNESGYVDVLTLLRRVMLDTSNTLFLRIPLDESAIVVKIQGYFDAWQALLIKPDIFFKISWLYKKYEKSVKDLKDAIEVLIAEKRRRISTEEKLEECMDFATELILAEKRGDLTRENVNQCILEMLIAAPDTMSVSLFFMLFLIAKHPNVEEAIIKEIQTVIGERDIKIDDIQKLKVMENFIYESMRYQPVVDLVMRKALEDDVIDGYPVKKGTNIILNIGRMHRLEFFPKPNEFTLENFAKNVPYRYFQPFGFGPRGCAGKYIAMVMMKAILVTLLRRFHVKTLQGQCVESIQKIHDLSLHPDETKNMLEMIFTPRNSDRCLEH
Method: The aromatase inhibitory effect was performed using the method reported by Stressor et al.[35].
This method was carried out according to the Gentest kit using CYP19 enzyme and DBF as a
fluorometric substrate. DBF was dealkylated by aromatase and then hydrolyzed to give the
fluorescein product. Briefly, 100 μL of cofactor, containing 78.4 μL of 50 mM phosphate buffer
(pH 7.4); 20 μL of 20x NADPH-generating system (26 mM NADP+, 66 mM glucose-6-phosphate,
and 66 mM MgCl2); and 1.6 μL of 100 U/mL glucose-6-phosphate dehydrogenase, was pipetted
into a 96-well plate and preincubated in 37 °C (water bath) for 10 min. The reaction was initiated
by addition of 100 μL of enzyme/substrate mixture containing 77.3 μL of 50 mM
phosphate buffer (pH 7.4); 12.5 μL of 16 pmol/mL CYP19; 0.2 μL of 0.2 mM DBF, and 10 μL of
0.25 mM diluted tested sample or 10% DMSO as a negative control or letrozole as a positive
control. Fluorescence signal was recorded using an excitation wavelength of 490 nm and emission
Percentage of inhibition (%inhibition) was calculated
as shown in Equation (1).
assayed in triplicate. Finally, IC50 values were determined by plot of concentrations versus %

Row | Structure (SMILES) | IC50 [2] | IC50 [3] | IC50 [4] | IC50 [5] | Fold less potent than compound 12 (GI50) [6] | IC50 [6] | melting point | IC50 [7] | viability at 4 days, 50 µM [1]
1 | CCc1c2cc(Cl)ccc2n2c(C)c(C(=O)O)[nH]c(=O)c12 [Compound 6, 8-chloro-10-ethyl-4-methyl-1-oxo-1,2-dihydropyrazino [1,2-a]indole-3-carboxylic acid] | 65 ± 6 nM | 68 ± 6 nM | 64 ± 6 nM | 66 ± 6 nM | – | 66 nM | 270 to 272 °C | – | 92%
2 | CCc1c2n(c3ccc(Cl)cc13)C(O)C(c1ccccc1)NC2=O (stereo not shown) [Compound 15, 8-Chloro-10-ethyl-4-hydroxy-3-phenyl-3,4-dihydropyrazino [1,2-a] indol-1(2H)-one] | 69 ± 6 nM | 76 ± 7 nM | 72 ± 7 nM | 74 ± 7 nM | – | 72 nM | 213 to 215 °C | – | 92%
3 | CCc1c2n(c3ccc(Cl)cc13)C(O)C(Cc1ccccc1)NC2=O (stereo not shown) [Compound 10, 3-benzyl-8-chloro-10-ethyl-4-hydroxy-3,4-dihydropyrazino [1,2-a] indol-1(2H)-one] | 53 ± 5 nM | 56 ± 5 nM | 54 ± 5 nM | 54 ± 5 nM | – | 54 nM | 160 to 162 °C | – | 89%
4 | C#Cc1cccc(Nc2ncnc3cc(OCCOC)c(OCCOC)cc23)c1 [Erlotinib, reference compound] | 30 ± 3 nM | 40 ± 3 nM | 30 ± 3 nM | 30 ± 3 nM | – | – | – | – | –
5 | CCc1c(C(=O)NC(C(C)=O)C(=O)OCc2ccccc2)[nH]c2ccc(Cl)cc12 (stereo not shown) [Compound 4, benzyl 2-(5-chloro-3-ethyl-1h-indol-2-carboxamido)-3-oxobutanoate] | 59 ± 5 nM | 65 ± 6 nM | 60 ± 5 nM | 64 ± 6 nM | – | 62 nM | – | – | 89%
6 | CCc1c(C(=O)NC(C(=O)OCc2ccccc2)C(C)O)[nH]c2ccc(Cl)cc12 (stereo not shown) [Compound 3, Benzyl 2-(5-chloro-3-ethyl-1H-indol-2-carboxamido)-3-hydroxybutanoate] | 57 ± 5 nM | 62 ± 5 nM | 58 ± 5 nM | 60 ± 5 nM | – | 59 nM | – | – | 91%
7 | CCOC(=O)C(Cc1ccccc1)NC(=O)c1[nH]c2ccc(Cl)cc2c1CC (stereo not shown) [Compound 8, ethyl 2-(5-chloro-3-ethyl-1h-indole-2-carboxamido)-3-phenylpropanoate] | 37 ± 3 nM | 40 ± 3 nM | 37 ± 3 nM | 38 ± 3 nM | – | 38 nM | – | 33 ± 3 nM | 92%

Now from value to compound, other results behind:

Row | IC50 [2] | IC50 [3] | IC50 [4] | IC50 [5] | Fold less potent than compound 12 (GI50) [6] | IC50 [6] | melting point | IC50 [7] | Structure (SMILES) | viability at 4 days, 50 µM [1]
8 | 40 ± 4 nM | 43 ± 4 nM | 40 ± 4 nM | 42 ± 4 nM | 1.7 fold | 41 nM | – | – | CCc1c2cc(Cl)ccc2n2cc(Cc3ccccc3)[nH]c(=O)c12 [Compound 11, 3-Benzyl-8-chloro-10-ethylpyrazino[1,2-a]indol-1(2H)-one] | 92%
9 | 34 ± 3 nM | 36 ± 3 nM | 35 ± 3 nM | 34 ± 3 nM | – | 35 nM | 210 to 212 °C | 28 ± 2 nM | CCc1c(C(=O)NC(C(=O)OC)c2ccccc2)[nH]c2ccc(Cl)cc12 (stereo not shown) [Compound 13, Methyl 2-(5-chloro-3-ethyl-1h-indole-2-carboxamido)-2-phenylacetate] | 91%
10 | 48 ± 4 nM | 50 ± 4 nM | 47 ± 4 nM | 50 ± 5 nM | – | 49 nM | 196 to 198 °C | – | CCc1c2n(c3ccc(Cl)cc13)C(=O)C(Cc1ccccc1)NC2=O (stereo not shown) [Compound 9, 3-benzyl-8-chloro-10-ethyl-2,3-dihydropyrazino [1,2-a] indole-1,4-dione] | 91%
11 | 44 ± 4 nM | 46 ± 4 nM | 44 ± 4 nM | 46 ± 4 nM | – | 45 nM | 202 to 204 °C | – | CCc1c2n(c3ccc(Cl)cc13)C(=O)C(c1ccccc1)NC2=O (stereo not shown) [Compound 14, 8-Chloro-10-ethyl-3-phenyl-2,3-dihydropyrazino [1,2-a] indole-1,4-dione] | 90%

From publication PMC11414412, “Design and synthesis new indole-based aromatase/iNOS inhibitors with apoptotic antiproliferative activity” (Frontiers in Chemistry, 2024)
